# Measured values taken from ChEMBL document CHEMBL4840343, “Fragment-based lead discovery of indazole-based compounds as AXL kinase inhibitors” (Bioorg Med Chem, 2021).
# The source made the active and inactive calls. The calls are words filed in the database; no cut-off is given here.
# Key:
# [1] = molecular target: T1, Tyrosine-protein kinase receptor UFO (Homo sapiens, UniProt P30530); experiment: Inhibition of Axl (unknown origin) using 5'FAM labeled KKKKEEIYFFF-NH2 peptide as substrate incubated for 1.5 hrs
# T1 sequence (P30530 whole entry): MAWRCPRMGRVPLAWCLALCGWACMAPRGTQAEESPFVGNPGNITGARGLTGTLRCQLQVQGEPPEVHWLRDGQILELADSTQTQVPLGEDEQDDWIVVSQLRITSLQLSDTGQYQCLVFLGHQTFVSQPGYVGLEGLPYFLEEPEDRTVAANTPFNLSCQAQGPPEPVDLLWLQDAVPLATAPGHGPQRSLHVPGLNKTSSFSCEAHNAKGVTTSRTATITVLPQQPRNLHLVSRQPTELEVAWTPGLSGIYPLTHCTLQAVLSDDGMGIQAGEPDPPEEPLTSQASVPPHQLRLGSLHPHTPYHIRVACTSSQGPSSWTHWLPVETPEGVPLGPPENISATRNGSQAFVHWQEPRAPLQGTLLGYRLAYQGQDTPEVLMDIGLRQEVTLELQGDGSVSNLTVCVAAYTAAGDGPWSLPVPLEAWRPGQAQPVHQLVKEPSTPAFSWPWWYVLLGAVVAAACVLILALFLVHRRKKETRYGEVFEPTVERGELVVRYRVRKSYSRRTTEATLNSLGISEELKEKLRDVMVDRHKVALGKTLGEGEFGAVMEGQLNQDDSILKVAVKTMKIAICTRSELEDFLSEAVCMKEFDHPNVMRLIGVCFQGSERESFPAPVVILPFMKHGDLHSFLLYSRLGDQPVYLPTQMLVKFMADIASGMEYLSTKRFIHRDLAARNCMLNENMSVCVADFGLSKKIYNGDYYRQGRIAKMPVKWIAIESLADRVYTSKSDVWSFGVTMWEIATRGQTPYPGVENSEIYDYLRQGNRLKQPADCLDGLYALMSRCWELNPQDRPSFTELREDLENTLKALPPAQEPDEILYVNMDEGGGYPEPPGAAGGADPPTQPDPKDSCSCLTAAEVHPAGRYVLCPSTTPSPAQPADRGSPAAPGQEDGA
# [2] = molecular target: T1, Tyrosine-protein kinase receptor UFO; experiment: Displacement of K5 tracer from Axl (unknown origin) expressed in human HEK293 cells cotransfected with NanoLuc measured after 2 hrs by NanoBRET assay; format: cell-based
# SK-OV-3 = experiment: Antiproliferative activity against human SK-OV-3 cells as reduction in cell growth measured after 72 hrs by Celltiter-Glo luminescent assay; format: functional
# [3] = Half life in mouse at 5 mg/kg, po; format: ADME, organism-based; details: in vivo
# [4] = Distribution coefficient, logD of compound at pH 7.4; format: physicochemical; details: octanol/water
# [5] = Thermodynamic solubility of compound at pH 7.4; format: physicochemical; details: buffer, read-out: Therm_solubility
# [6] = Tmax in mouse at 5 mg/kg, po; format: ADME, organism-based; details: in vivo
# [7] = AUC (0 to infinity) in mouse at 5 mg/kg, po; format: ADME, organism-based; design: route oral, time infinity, dose 5 mg/kg; details: in vivo
# [8] = Permeability across basolateral to apical side in human Caco-2 cells; format: ADME, cell-based; details: read-out: permeability
# [9] = Intrinsic clearance in human liver microsomes; format: ADME, Microsome; details: read-out: CLH
# [10] = Cmax in mouse at 5 mg/kg, po; format: ADME, organism-based; design: route oral, dose 5 mg/kg; details: in vivo
# [11] = Permeability across apical to basolateral side in human Caco-2 cells; format: ADME, cell-based; details: read-out: permeability
# [12] = Intrinsic clearance in mouse liver microsomes; format: ADME, Microsome; details: read-out: CLH
# [13] = Efflux ratio of permeability in human Caco-2 cells; format: ADME, cell-based
# [14] = molecular target: Tyrosine-protein kinase receptor UFO (Homo sapiens) (UniProt P30530); experiment: Inhibition of Axl in human SK-OV-3 cells assessed as reduction in phosphorylated ERK1/2 level at 1 to 10 uM measured after 1 hr by Western blot analysis; format: cell-based; details: dose 1-10 µM
# [15] = molecular target: Tyrosine-protein kinase receptor UFO (Homo sapiens) (UniProt P30530); experiment: Inhibition of Axl in human SK-OV-3 cells assessed as reduction in phosphorylated Axl level measured after 1 hr by Western blot analysis; format: cell-based; details: dose 1-10 µM
structure (smiles),measurement,setting,value
CN1CCC(CNc2ccc3[nH]nc(-c4cnn(C)c4)c3c2)CC1,IC50,[1],1850 µM
N#Cc1cccc(-n2cc(-c3n[nH]c4cc(Cl)c(N[C@@H]5CCNC5)cc34)cn2)c1,IC50,[1],2.3 µM
same,IC50,[2],2.02 µM
same,GI50,SK-OV-3,0.496 µM
Nc1ccc2c(Br)n[nH]c2c1,IC50,[1],> 770 µM
Cc1ccc(C)n1-c1ccsc1C(=O)O,IC50,[1],70 µM
CSc1cc(-c2ccc(F)cc2)n[nH]1,IC50,[1],331 µM
Cn1cc(-c2n[nH]c3cc(N)ccc23)cn1,IC50,[1],28.8 µM
CNC1CCN(c2ccc3[nH]nc(-c4cnn(C)c4)c3c2)C1 (stereo not given),IC50,[1],432 µM
Cn1cc(-c2nn(C)c3cc(N)ccc23)cn1,IC50,[1],> 384 µM
COc1ccc2[nH]c(C)cc2c1,IC50,[1],38 µM
O=C(O)c1ccc2cn[nH]c2c1,IC50,[1],> 770 µM
Nc1cccc2[nH]nc(Br)c12,IC50,[1],486 µM
Cn1cc(-c2n[nH]c3ccc(Nc4ccccc4)cc23)cn1,IC50,[1],0.58 µM
Clc1ncnc2ccsc12,IC50,[1],302 µM
Cc1cnc2[nH]ccc2c1Cl,IC50,[1],20.2 µM
FC(F)(F)n1cc(-c2n[nH]c3cc(Cl)c(N[C@@H]4CCN(C5COC5)C4)cc23)cn1,half-life,[3],2.6 h
same,logD,[4],3.66
same,solubility thermodynamic,[5],4.58 µg/mL
same,Tmax,[6],0.17 h
same,IC50,[1],466 µM
same,AUC(0-inf),[7],573 ng·h/mL
same,Papp B→A,[8],17.4 ×10⁻⁶ cm/s
same,microsomal CLint,[9],15.4 µL/min/mg
same,Cmax,[10],258 ng/mL
same,Papp A→B,[11],21.1 ×10⁻⁶ cm/s
same,IC50,[2],26.3 µM
same,microsomal CLint,[12],43.9 µL/min/mg
same,efflux ratio,[13],0.82
Cn1cc(-c2n[nH]c3ccc(Br)cc23)cn1,IC50,[1],1.54 µM
Clc1ccnc2[nH]ccc12,IC50,[1],113 µM
Nc1ccc2[nH]nc(Br)c2c1,IC50,[1],> 770 µM
Cn1cc(-c2n[nH]c3ccc(NC4CCNC4)cc23)cn1 (stereo not given),IC50,[1],132 µM
c1cncc(-c2csc(-c3cccnc3)n2)c1,IC50,[1],305 µM
Nc1ccc(Br)c2ccncc12,IC50,[1],57 µM
c1cnc2[nH]ccc2c1,IC50,[1],391 µM
O=C1CC(c2ccccc2)=NN1,IC50,[1],13 µM
Brc1c[nH]c2ncccc12,IC50,[1],22.8 µM
COc1ccc(-n2cc(-c3n[nH]c4cc(Cl)c(N[C@H]5CNCC56CC6)cc34)cn2)cc1,half-life,[3],2.16 h
same,logD,[4],> 5
same,solubility thermodynamic,[5],5.55 µg/mL
same,Tmax,[6],0.25 h
same,IC50,[1],1 µM
same,AUC(0-inf),[7],129 ng·h/mL
same,Papp B→A,[8],5.24 ×10⁻⁶ cm/s
same,microsomal CLint,[9],83 µL/min/mg
same,Cmax,[10],53 ng/mL
same,Papp A→B,[11],4.05 ×10⁻⁶ cm/s
same,IC50,[2],0.883 µM
same,microsomal CLint,[12],5.14 µL/min/mg
same,efflux ratio,[13],1.3
same,GI50,SK-OV-3,0.0285 µM
Cn1cc(-c2n[nH]c3cc(Cl)c(Br)cc23)cn1,IC50,[1],0.85 µM
Fc1ccc(-n2cc(-c3n[nH]c4cc(Cl)c(N[C@@H]5CCNC5)cc34)cn2)cc1,IC50,[1],2.3 µM
same,IC50,[2],0.684 µM
Brc1cnn2cccnc12,IC50,[1],330 µM
FC(F)(F)c1cccc2[nH]ncc12,IC50,[1],184 µM
Cn1cc(-c2n[nH]c3cc(Br)ccc23)cn1,IC50,[1],0.95 µM
COc1ccc(-n2cc(-c3n[nH]c4cc(Cl)c(N[C@@H]5CCNC5)cc34)cn2)cc1,inhibition,[14],Active
same,IC50,[1],0.3 µM
same,IC50,[2],0.374 µM
same,inhibition,[15],Dose-Dependent Effect
same,GI50,SK-OV-3,0.718 µM
N#Cc1ccc(-n2cc(-c3n[nH]c4cc(Cl)c(N[C@@H]5CCNC5)cc34)cn2)cc1,IC50,[1],0.7 µM
same,IC50,[2],0.88 µM
same,GI50,SK-OV-3,0.0529 µM
Nc1cccc(-c2cccnc2)c1,IC50,[1],363 µM
FCCn1cc(-c2n[nH]c3cc(Cl)c(N[C@@H]4CCNC4)cc23)cn1,IC50,[1],5 µM
same,IC50,[2],3.46 µM
Brc1cccc2[nH]ncc12,IC50,[1],178 µM
CN1CCC(Nc2ccc3[nH]nc(-c4cnn(C)c4)c3c2)CC1,IC50,[1],207 µM
Cn1cc(-c2n[nH]c3cc(Cl)c(N[C@@H]4CCN(C5COC5)C4)cc23)cn1,half-life,[3],2 h
same,logD,[4],2.31
same,solubility thermodynamic,[5],245 µg/mL
same,Tmax,[6],0.17 h
same,IC50,[1],320 µM
same,AUC(0-inf),[7],396 ng·h/mL
same,Papp B→A,[8],31.6 ×10⁻⁶ cm/s
same,microsomal CLint,[9],6.9 µL/min/mg
same,Cmax,[10],126 ng/mL
same,Papp A→B,[11],13.7 ×10⁻⁶ cm/s
same,IC50,[2],24.7 µM
same,microsomal CLint,[12],15.2 µL/min/mg
same,efflux ratio,[13],2.31
Cn1cc(-c2n[nH]c3cc(Nc4ccccc4)ccc23)cn1,IC50,[1],219 µM
N#Cc1ccccc1-n1cc(-c2n[nH]c3cc(Cl)c(N[C@@H]4CCNC4)cc23)cn1,IC50,[1],3.2 µM
same,IC50,[2],3.54 µM
same,GI50,SK-OV-3,2.78 µM
Cn1cc(-c2n[nH]c3cc(Cl)c(N[C@@H]4CCNC4)cc23)cn1,inhibition,[14],Active
same,logD,[4],0.32
same,solubility thermodynamic,[5],297 µg/mL
same,IC50,[1],19 µM
same,Papp B→A,[8],8.71 ×10⁻⁶ cm/s
same,microsomal CLint,[9],< 12 µL/min/mg
same,Papp A→B,[11],0.39 ×10⁻⁶ cm/s
same,IC50,[2],3.13 µM
same,inhibition,[15],Dose-Dependent Effect
same,microsomal CLint,[12],9.38 µL/min/mg
same,efflux ratio,[13],22.6
same,GI50,SK-OV-3,8.62 µM
Cn1cc(-c2n[nH]c3ccc(N[C@@H]4CCNC4)cc23)cn1,IC50,[1],37 µM
same,IC50,[2],20.7 µM
CC(C)Nc1ccc2c(-c3cnn(C)c3)n[nH]c2c1,IC50,[1],46.6 µM
Clc1cc2[nH]nc(-c3cnn(-c4ccccc4)c3)c2cc1N[C@@H]1CCNC1,IC50,[1],1.7 µM
same,IC50,[2],0.668 µM
CN1CC[C@@H](Nc2cc3c(-c4cnn(C)c4)n[nH]c3cc2Cl)C1,IC50,[1],74 µM
same,IC50,[2],8.96 µM
O=C(O)c1ccc2c(Br)n[nH]c2c1,IC50,[1],> 770 µM
COc1cc2[nH]ncc2cc1Br,IC50,[1],227 µM
Cn1cc(-c2n[nH]c3ccc(N[C@H]4CCNC4)cc23)cn1,IC50,[1],239 µM
same,IC50,[2],> 50 µM
Cn1cc(-c2n[nH]c3ccc(-c4ccccc4)cc23)cn1,IC50,[1],0.62 µM
Nc1ccc2c(-c3cccnc3)n[nH]c2c1,IC50,[1],28.4 µM
Cn1cc(-c2n[nH]c3ccc(N)cc23)cn1,IC50,[1],8.91 µM
Cn1cc(-c2n[nH]c3cc(-c4ccccc4)ccc23)cn1,IC50,[1],12.3 µM
